Three molecules from publication PMC8808168, “Enzymatic and structural characterization of HAD5, an essential phosphomannomutase of malaria-causing parasites” (The Journal of Biological Chemistry, 2021) can be followed below.

For one series, the target named is T1, HsPMM1 (Homo sapiens, UniProt Q92871).
T1 construct: gene PMM1; pET28a, His-tag cut with thrombin; E. coli BL21 Gold (DE3)
T1 sequence (Q92871 2-262): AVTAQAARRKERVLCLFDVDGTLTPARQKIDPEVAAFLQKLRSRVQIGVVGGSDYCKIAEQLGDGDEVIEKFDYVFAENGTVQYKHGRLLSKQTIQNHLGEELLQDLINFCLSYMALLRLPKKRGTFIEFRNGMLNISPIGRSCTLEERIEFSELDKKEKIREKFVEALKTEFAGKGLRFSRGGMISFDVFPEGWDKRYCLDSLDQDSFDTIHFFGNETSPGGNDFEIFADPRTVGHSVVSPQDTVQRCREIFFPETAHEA
The series is described as follows: coupled PGM assay (G6PDH, NADPH at […] nm). The series is classed as biochemical. To be noted: 1 mM glucose 1-phosphate, 10 μM G-1,6-P, 1 mM MgCl2, pH 7.5, room temperature, 133 nM enzyme.

Another series deals with T2, HsPMM2 (Homo sapiens, UniProt O15305).
T2 construct: gene PMM2; pET28a, His-tag cut with thrombin; E. coli BL21 Gold (DE3)
T2 sequence (O15305 2-246): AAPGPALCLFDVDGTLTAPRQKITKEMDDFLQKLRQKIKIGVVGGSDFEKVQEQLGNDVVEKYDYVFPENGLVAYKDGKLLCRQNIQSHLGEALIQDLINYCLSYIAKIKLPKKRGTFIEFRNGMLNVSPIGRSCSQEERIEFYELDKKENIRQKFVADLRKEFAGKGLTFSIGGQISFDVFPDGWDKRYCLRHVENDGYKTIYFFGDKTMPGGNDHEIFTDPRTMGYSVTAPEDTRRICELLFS
The experiment in a line: coupled PGM assay (G6PDH, NADPH at […] nm). The series is classed as biochemical. To be noted: 1 mM glucose 1-phosphate, 10 μM G-1,6-P, 1 mM MgCl2, pH 7.5, room temperature, 65 nM enzyme.

The next series addresses T3, HAD5 (PfHAD5) (Plasmodium falciparum, UniProt Q8IJM5).
T3 construct: gene PF3D7_1017400; pET28a, N-terminal His-tag cut with thrombin; E. coli BL21 Gold (DE3); size-exclusion purified
T3 sequence (Q8IJM5 1-244): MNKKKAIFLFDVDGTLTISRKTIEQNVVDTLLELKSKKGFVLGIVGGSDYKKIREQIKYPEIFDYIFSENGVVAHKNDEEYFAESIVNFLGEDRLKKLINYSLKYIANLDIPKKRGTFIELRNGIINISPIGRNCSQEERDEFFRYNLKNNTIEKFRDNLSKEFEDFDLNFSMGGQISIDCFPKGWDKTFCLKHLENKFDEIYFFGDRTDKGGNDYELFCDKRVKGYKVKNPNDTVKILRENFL
The experiment in a line: linked PMM assay, activation. The series is classed as biochemical. Conditions: 12.5 μM G-1,6-P, 1 mM mannose 6-phosphate, pH 7.5, room temperature; activator.

Substrate in the series “purified protein”: O=P(O)(O)O[C@H]1O[C@H](CO)[C@@H](O)[C@H](O)[C@H]1O
The series is described as follows: purified protein. To be noted: G1P to G6P, 10 μM G-1,6-P, 0.75 mM NADP+, 25 mM Tris-HCl, 25 mM NaCl, 1 mM MgCl2, pH 7.5, room temperature.

For the molecule `O=P(O)(O)C[C@H]1O[C@H](CNO)[C@@H](O)[C@H](O)[C@H]1O` [D9, compound D9], the IC50 (as a rule, the concentration that gives 50% inhibition) at HsPMM1 came out at 895 ± 66 µM; on HsPMM2, 413 ± 41 µM.
`O=P(O)(O)OC[C@H]1O[C@H](OP(=O)(O)O)[C@H](O)[C@@H](O)[C@@H]1O` [glucose-1,6-bisphosphate]: on HAD5 (PfHAD5), the “linked PMM assay, activation” value was “upon addition of the known cofactor glucose-1,6-bisphosphate”.

B1: HAD5 (PfHAD5) (Plasmodium falciparum 3D7) (protein)
chain: T3 sequence (Q8IJM5 1-244)
For B1, in “purified protein”, the Michaelis-Menten constant (Km) (in general, the substrate concentration at which the rate is half of its maximum) is 5.2 ± 1.4 µM; the kcat – broadly, the maximal rate divided by the concentration of active sites – worked out at 7.8e-06 ± 1.2e-06 s⁻¹; the kcat/Km – broadly, the turnover number divided by the Michaelis constant – turned out to be 1.5 M⁻¹ s⁻¹.
